Assay results taken from patent US11787799B2 (priority 2015, dated 2023).
“And” between values parts separate entries of the source, which are not always exact repeats. Identical values can stand only once. Like-named read-outs stand apart in the source and are kept apart here.

Tests used:
[1] = system: MA-104
[2] = system: BHK-21; conditions: read-out: CC50 (Rabies test)
[3] = system: BHK; conditions: read-out: CC50 (Powassan test)
[4] = system: Enterovirus D68/US/KY/14-18953; assay: Antiviral assay, Enterovirus D68 strain US/KY/14-18953 in RD cells; type: cell-based
[5] = system: Enterovirus D68/Fermon; assay: Antiviral assay, Enterovirus D68 strain Fermon in RD cells; type: cell-based
[6] = system: MDCK
[7] = system: Enterovirus 71; assay: microbe, parasite or virus in culture; type: cell-based
[8] = system: Echovirus 9; assay: microbe, parasite or virus in culture; type: cell-based; conditions: read-out: EC50 ECHO09
[9] = system: Poliovirus 3; assay: microbe, parasite or virus in culture; type: cell-based; conditions: read-out: EC50 PV3
[10] = system: Coxsackievirus B5; assay: microbe, parasite or virus in culture; type: cell-based
[11] = system: Coxsackievirus B1; assay: microbe, parasite or virus in culture; type: cell-based
[12] = system: Japanese Encephalitis; type: cell-based
[13] = system: Rift Valley virus; assay: organism not typed; type: cell-based; conditions: read-out: EC50 Rift Valley virus
[14] = system: RD cells
[15] = system: Venezuelan Encephalitis; type: cell-based, Venezuelan encephalitis virus
[16] = system: Rabies; type: cell-based, rabies virus
[17] = system: RSV (resp syncitial virus); assay: microbe, parasite or virus in culture; type: cell-based; conditions: read-out: EC50 RSV
[18] = system: Measles; assay: microbe, parasite or virus in culture; type: cell-based; conditions: read-out: EC50 Measles
[19] = system: Echovirus 30; assay: microbe, parasite or virus in culture; type: cell-based; conditions: read-out: EC50 ECHO30
[20] = system: HeLa-RW cells
[21] = system: Vero; conditions: read-out: CC50 (Yellow Fever Virus test)
[22] = system: Punta Toro virus; assay: microbe, parasite or virus in culture; type: cell-based; conditions: read-out: EC50 Punta Toro virus
[23] = system: Coxsackievirus B3-H3; assay: microbe, parasite or virus in culture; type: cell-based
[24] = system: Vero 76
[25] = system: Poliovirus 1; assay: microbe, parasite or virus in culture; type: cell-based; conditions: read-out: EC50 PV1
[26] = system: SARS Coronavirus; type: cell-based
[27] = system: Yellow Fever Virus; assay: microbe, parasite or virus in culture; type: cell-based; conditions: read-out: EC50 Yellow Fever Virus
[28] = system: LLC cells
[29] = system: Powassan; type: cell-based, Powassan virus
[30] = system: Influenza A H1N1; assay: microbe, parasite or virus in culture; type: cell-based; conditions: read-out: EC50 Influenza A H1N1
[31] = system: Chikungunya; type: cell-based, chikungunya virus
[32] = system: Coxsackievirus A9; assay: microbe, parasite or virus in culture; type: cell-based
[33] = system: Echovirus 7; assay: microbe, parasite or virus in culture; type: cell-based; conditions: read-out: EC50 ECHO07
[34] = system: Enterovirus D68/US/Mo/14-18949; assay: Antiviral assay, Enterovirus D68 strain US/Mo/14-18949 in RD cells; type: cell-based
[35] = system: Coxsackievirus B4; assay: microbe, parasite or virus in culture; type: cell-based
[36] = system: Coxsackievirus B2; assay: microbe, parasite or virus in culture; type: cell-based
[37] = system: Echovirus 6; assay: microbe, parasite or virus in culture; type: cell-based; conditions: read-out: EC50 ECHO06
[38] = system: Echovirus 25; assay: microbe, parasite or virus in culture; type: cell-based; conditions: read-out: EC50 ECHO25
[39] = system: Echovirus 11; assay: microbe, parasite or virus in culture; type: cell-based; conditions: Enterovirus B, read-out: EC50 ECHO11
[40] = in vitro; conditions: human
[41] = in vitro
[42] = read-out: CC50 (Rift Valley virus test), with Rift Valley virus MP-12 test
[43] = read-out: CC50 (SARS Coronavirus test), with SARS Coronavirus Urbani test
[44] = Enterovirus A, EV71, read-out: EC50 EV71
[45] = Enterovirus B, B5 / CVB5, read-out: EC50 CVB5
[46] = Enterovirus B, B1 / CVB1, read-out: EC50 CVB1
[47] = Coxsackievirus, B3 / CVB3, read-out: EC50 CVB3-H3
[48] = Enterovirus B, A9, read-out: EC50 COX A9
[49] = Enterovirus B, B4 / CVB4, read-out: EC50 CVB4
[50] = Enterovirus B, B2 / CVB2, read-out: EC50 CVB2

**Q.** For CC(C)n1ncc2c(C(=O)Nc3cccc(S(N)(=O)=O)c3)cc(-c3cccs3)nc21 [JX-025], which CC50 [1] is on record?
**A.** > 100 µM

**Q.** And the CC50 [2]?
**A.** 12.2 µM

**Q.** What about the CC50 [3] of the same compound?
**A.** 8.9 µM

**Q.** And the EC50 [4]?
**A.** 0.15 µM

**Q.** And the EC50 [5]?
**A.** 0.1 µM and 0.15 µM

**Q.** What about the CC50 [6] of the same compound?
**A.** > 100 µM

**Q.** What about the EC50 ([7]; read-out: EC50 EV71) of the same compound?
**A.** 1.3 ± 0.1 µM

**Q.** What about the EC50 [8] of the same compound?
**A.** 1.2 µM

**Q.** What about the EC50 [9] of the same compound?
**A.** 5 µM

**Q.** And the EC50 ([10]; read-out: EC50 CVB5)?
**A.** 1.2 µM

**Q.** What about the EC50 ([11]; read-out: EC50 CVB1) of the same compound?
**A.** 1.2 µM

**Q.** What about the EC50 [12] of the same compound?
**A.** 0.31 µM

**Q.** And the EC50 [13]?
**A.** > 100 µM

**Q.** And the CC50 [14]?
**A.** 50 µM

**Q.** What about the EC50 [15] of the same compound?
**A.** > 0.88 µM

**Q.** What about the EC50 [16] of the same compound?
**A.** > 12.2 µM

**Q.** And the EC50 [17]?
**A.** > 100 µM

**Q.** What about the EC50 [18] of the same compound?
**A.** 7.1 µM

**Q.** And the EC50 [19]?
**A.** 0.6 µM

**Q.** And the CC50 [20]?
**A.** 50 µM

**Q.** What about the CC50 [21] of the same compound?
**A.** 4.8 µM

**Q.** What about the EC50 [22] of the same compound?
**A.** 38 µM

**Q.** And the EC50 ([23]; read-out: EC50 CVB3-H3)?
**A.** 0.3 µM

**Q.** And the CC50 [24, 42]?
**A.** > 100 µM

**Q.** What about the CC50 [24, 43] of the same compound?
**A.** 7.2 µM

**Q.** What about the EC50 [25] of the same compound?
**A.** 5 µM

**Q.** And the EC50 [26]?
**A.** > 7.2 µM

**Q.** What about the EC50 [27] of the same compound?
**A.** > 4.8 µM

**Q.** What about the CC50 [28] of the same compound?
**A.** 25 µM

**Q.** And the EC50 [29]?
**A.** > 8.9 µM

**Q.** What about the EC50 [30] of the same compound?
**A.** > 100 µM

**Q.** And the EC50 [31]?
**A.** 0.3 µM

**Q.** What about the EC50 ([32]; read-out: EC50 COX A9) of the same compound?
**A.** 2.1 ± 0.7 µM

**Q.** What about the EC50 [33] of the same compound?
**A.** 2.1 ± 0.6 µM

**Q.** And the EC50 [34]?
**A.** 0.06 ± 0.02 µM

**Q.** What about the EC50 ([35]; read-out: EC50 CVB4) of the same compound?
**A.** 1.1 ± 0.2 µM

**Q.** And the EC50 ([36]; read-out: EC50 CVB2)?
**A.** 1.2 µM

**Q.** And the EC50 [37]?
**A.** 1.1 ± 0.3 µM

**Q.** What about the EC50 [38] of the same compound?
**A.** 1.1 µM

**Q.** With CC(C)n1ncc2c(C(=O)Nc3ccc(F)cc3)cc(-c3ccsc3)nc21 [JX-030] as the compound, how does the CC50 [1] read?
**A.** 67.6 µM

**Q.** And the CC50 [2]?
**A.** > 260 µM

**Q.** And the CC50 [3]?
**A.** > 85.8 µM

**Q.** And the EC50 [4]?
**A.** 0.6 µM

**Q.** What about the CC50 [6] of the same compound?
**A.** 17.7 µM

**Q.** And the EC50 ([7]; read-out: EC50 EV71)?
**A.** 1.4 ± 0.2 µM

**Q.** And the EC50 [8]?
**A.** 1.9 µM

**Q.** What about the EC50 [9] of the same compound?
**A.** > 25 µM

**Q.** What about the EC50 ([10]; read-out: EC50 CVB5) of the same compound?
**A.** 1.2 ± 0.1 µM

**Q.** What about the EC50 ([11]; read-out: EC50 CVB1) of the same compound?
**A.** 1.6 ± 0.1 µM

**Q.** What about the EC50 [12] of the same compound?
**A.** 3.4 µM

**Q.** And the EC50 [13]?
**A.** 140 µM

**Q.** And the CC50 [14]?
**A.** 25 µM

**Q.** What about the EC50 [15] of the same compound?
**A.** > 9.4 µM

**Q.** And the EC50 [16]?
**A.** 88.4 µM

**Q.** What about the EC50 [17] of the same compound?
**A.** 7 µM

**Q.** What about the EC50 [18] of the same compound?
**A.** 20.5 µM

**Q.** What about the EC50 [19] of the same compound?
**A.** 0.6 µM

**Q.** And the CC50 [20]?
**A.** 25 µM

**Q.** What about the CC50 [21] of the same compound?
**A.** 11.1 µM

**Q.** And the EC50 [22]?
**A.** > 78 µM

**Q.** What about the EC50 ([23]; read-out: EC50 CVB3-H3) of the same compound?
**A.** 1.3 ± 0.1 µM

**Q.** And the CC50 [24, 42]?
**A.** 169 µM

**Q.** And the CC50 [24, 43]?
**A.** 18.7 µM

**Q.** What about the EC50 [25] of the same compound?
**A.** > 25 µM

**Q.** And the EC50 [26]?
**A.** 4.4 µM

**Q.** What about the EC50 [27] of the same compound?
**A.** > 11.1 µM

**Q.** What about the CC50 [28] of the same compound?
**A.** > 100 µM

**Q.** And the EC50 [29]?
**A.** > 85.8 µM

**Q.** What about the EC50 [30] of the same compound?
**A.** 10.7 µM

**Q.** What about the EC50 [31] of the same compound?
**A.** > 1.3 µM

**Q.** What about the EC50 ([32]; read-out: EC50 COX A9) of the same compound?
**A.** 1.7 ± 0.1 µM

**Q.** And the EC50 [33]?
**A.** 2.6 ± 0.1 µM

**Q.** And the EC50 [34]?
**A.** 0.3 µM

**Q.** What about the EC50 ([35]; read-out: EC50 CVB4) of the same compound?
**A.** 2.2 ± 0.1 µM

**Q.** And the EC50 ([36]; read-out: EC50 CVB2)?
**A.** 1.6 ± 0.1 µM

**Q.** What about the EC50 [37] of the same compound?
**A.** 1.2 ± 0.1 µM

**Q.** What about the EC50 [38] of the same compound?
**A.** 0.9 µM

**Q.** Which results are given for CC(C)n1ncc2c(N(C(=O)c3ccc(F)cc3)C(=O)c3ccc(F)cc3)cc(-c3cccs3)nc21 [JX-039]?
**A.** EC50 [7, 44]: 3.2 ± 0.1 µM; EC50 ([8]; Enterovirus B): > 10 µM; EC50 ([9]; Enterovirus C): > 10 µM; EC50 [10, 45]: > 10 µM; EC50 [11, 46]: 4.7 µM; EC50 [39]: > 10 µM; EC50 ([19]; Enterovirus B): > 10 µM; EC50 [23, 47]: 4.7 µM; EC50 ([25]; Enterovirus C): > 10 µM; EC50 [32, 48]: 4.5 µM; EC50 ([33]; Enterovirus B): > 10 µM; EC50 [35, 49]: > 10 µM; CC50 [40]: 10 µM; EC50 [36, 50]: 4.7 µM; EC50 ([37]; Enterovirus B): 2.4 µM; EC50 ([38]; Enterovirus B): > 10 µM

**Q.** For CC(C)n1ncc2c(NC(=O)c3ccc(F)cc3)cc(-c3cccs3)nc21 [JX-054], which EC50 ([4]; Enterovirus D) is on record?
**A.** 3.4 ± 1.18 µM

**Q.** And the EC50 ([5]; Enterovirus D)?
**A.** 2.4 µM

**Q.** What about the EC50 [7, 44] of the same compound?
**A.** 4 µM

**Q.** And the EC50 ([8]; Enterovirus B)?
**A.** 2.4 µM

**Q.** What about the EC50 ([9]; Enterovirus C) of the same compound?
**A.** > 10 µM

**Q.** What about the EC50 [10, 45] of the same compound?
**A.** 4.7 µM

**Q.** And the EC50 [11, 46]?
**A.** 4.7 µM

**Q.** And the EC50 [39]?
**A.** 3.1 µM

**Q.** And the EC50 ([19]; Enterovirus B)?
**A.** 4.7 µM

**Q.** And the EC50 [23, 47]?
**A.** 4.7 µM

**Q.** What about the EC50 ([25]; Enterovirus C) of the same compound?
**A.** > 10 µM

**Q.** What about the EC50 [32, 48] of the same compound?
**A.** 4.7 µM

**Q.** And the EC50 ([33]; Enterovirus B)?
**A.** 4.7 µM

**Q.** And the EC50 ([34]; Enterovirus D)?
**A.** 2.53 ± 0.23 µM

**Q.** And the EC50 [35, 49]?
**A.** 4.7 µM

**Q.** What about the EC50 [36, 50] of the same compound?
**A.** 4.7 µM

**Q.** What about the CC50 [41] of the same compound?
**A.** 50 µM
